Experimental data as given in US4183940A, “Antimycotic imidazolyl-9,10-dihydro-anthracene derivatives” (Bayer Aktiengesellschaft, priority 1976, dated 1980).
In brackets after ≈: the same amount, converted by molar mass.

Key:
Microsporon felineum = test: Antimycotic in vitro activity (series dilution test), Microsporon felineum; format: cell-based; conditions: Sabouraud's milieu d'epreuve, 28° C., 24 to 96 hours; for MIC: read-out: MIC values in γ/ml of nutrient medium for Microsporon felineum
Method: (§1) The invitro tests were carried out in a series dilution test with germ inocula of an average of 5×10^4 germs/ml of substrate. The nutrient medium was (a) for dermatophytes and moulds: Sabouraud's milieu d 'epreuve and (b) for yeasts: meat extract/glucose broth. The incubation temperature was 28° C. and the duration of incubation was 24 to 96 hours.

[1] = tested on: Trichophyton mentagrophytes; test: Antimycotic in vitro activity (series dilution test), Trichophyton mentagrophytes; format: cell-based; conditions: Sabouraud's milieu d'epreuve, 28° C., 24 to 96 hours; for MIC: Trichophyton mentagrophytes, read-out: MIC values in γ/ml of nutrient medium for Trichophyton mentagrophytes
Method: as §1

Aspergillus species = test: Antimycotic in vitro activity (series dilution test), Aspergillus species; format: cell-based; conditions: Sabouraud's milieu d'epreuve, 28° C., 24 to 96 hours; for MIC: Aspergillus, read-out: MIC values in γ/ml of nutrient medium for Aspergillus species
Method: as §1

Penicillium commune = test: Antimycotic in vitro activity (series dilution test), Penicillium commune; format: cell-based; conditions: Sabouraud's milieu d'epreuve, 28° C., 24 to 96 hours; for MIC: Penicillium commune, read-out: MIC values in γ/ml of nutrient medium for Penicillium commune
Method: as §1

Candida albicans = test: Antimycotic in vitro activity (series dilution test), Candida albicans; format: cell-based; conditions: meat extract/glucose broth, 28° C., 24 to 96 hours; for MIC: Candida albicans, read-out: MIC values in γ/ml of nutrient medium for Candida albicans
Method: as §1

Candida = test: Antimycotic in vivo activity (oral) in candidosis of mice; set-up: key: +++++: very good action=≥90% of survivors on the 6th day after infection; ++++: good action=≥80% of survivors on the 6th day after infection; +++: action=≥60% of survivors on the 6th day after infection; ++: poor action=≥40% of survivors on the 6th day after infection; +: trace of action; n.a.: no action; conditions: mice SPF-CF1, i.v. infection with Candida, 100 mg/kg oral one hour before and seven hours after infection
Method: Mice of the type SPF-CF1 were infected intravenously with 1-2×10^6 logarithmically growing Candida cells, which were suspended in physiological sodium chloride solution. The animals were treated orally one hour before and seven hours after the infection with, in each case, 100 mg/kg of body weight of the formulations.
Untreated animals died from the infection 2 to 6 days after infection. The survival rate on the 6th day after infection was about 5% in the case of the untreated control animals.

SMILES	MIC values in γ/ml of nutrient medium for Microsporon felineum (Microsporon felineum)	MIC [1]	MIC values in γ/ml of nutrient medium for Aspergillus species (Aspergillus species)	MIC (Penicillium commune)	MIC values in γ/ml of nutrient medium for Candida albicans (Candida albicans)	MIC values in γ/ml of nutrient medium for Trichophyton mentagrophytes [1]	MIC values in γ/ml of nutrient medium for Penicillium commune (Penicillium commune)	MIC (Microsporon felineum)	MIC (Aspergillus species)	MIC (Candida albicans)	Action (survivors on the 6th day after infection) (Candida)
O=C1c2ccccc2C(c2ccccc2)(n2ccnc2)c2ccccc21 [drawing 18]	8 µg/mL	< 1 µg/mL	4 µg/mL	4 µg/mL (≈ 11.9 µM)	4 µg/mL	–	–	–	–	–	–
O=C1c2ccccc2C(c2ccccc2)(n2ccnc2)c2ccccc21 [drawing 19]	< 1 µg/mL	–	32 µg/mL	–	8 µg/mL	< 1 µg/mL	8 µg/mL	–	–	–	–
O=C1c2ccccc2C(c2ccccc2)(n2ccnc2)c2ccccc21 [drawing 20]	4 µg/mL	–	64 µg/mL	–	> 64 µg/mL	< 1 µg/mL	8 µg/mL	–	–	–	–
O=C1c2ccccc2C(c2ccccc2)(n2ccnc2)c2ccccc21 [drawing 21]	4 µg/mL	–	32 µg/mL	–	> 64 µg/mL	< 1 µg/mL	8 µg/mL	–	–	–	–
Cc1ccccc1C1(n2ccnc2)c2ccccc2C(=O)c2ccccc21 [drawing 22]	–	< 1 µg/mL	–	–	–	–	> 64 µg/mL	< 1 µg/mL	> 64 µg/mL	> 64 µg/mL	–
Cc1ccccc1C1(n2ccnc2)c2ccccc2C(=O)c2ccccc21 [drawing 23]	1 µg/mL	–	> 64 µg/mL	–	32 µg/mL	< 1 µg/mL	4 µg/mL	–	–	–	–
Cc1ccc(C2(n3ccnc3)c3ccccc3C(=O)c3ccccc32)cc1 [drawing 24]	–	< 1 µg/mL	–	–	–	–	64 µg/mL	8 µg/mL (≈ 22.8 µM)	> 64 µg/mL	64 µg/mL (≈ 183 µM)	–
Cc1ccc(C2(n3ccnc3)c3ccccc3C(=O)c3ccccc32)cc1 [drawing 25]	4 µg/mL	–	> 64 µg/mL	–	> 64 µg/mL	< 1 µg/mL	8 µg/mL	–	–	–	–
c1ccc(C2(n3ccnc3)c3ccccc3C(c3ccccc3)(n3ccnc3)c3ccccc32)cc1 (stereo not drawn) [drawing 26]	–	32 µg/mL (≈ 68.9 µM)	–	> 64 µg/mL	–	–	–	–	–	4 µg/mL (≈ 8.61 µM)	–
O=C1c2ccccc2C(c2ccccc2)(n2ccnc2)c2ccccc21 [drawing 31]	–	–	–	–	–	–	–	–	–	–	+++ (action=≥60% of survivors on the 6th day after infection)
c1ccc(C2(n3ccnc3)c3ccccc3C(c3ccccc3)(n3ccnc3)c3ccccc32)cc1 (stereo not drawn) [drawing 32]	–	–	–	–	–	–	–	–	–	–	++ (poor action=≥40% of survivors on the 6th day after infection)
Cc1ccccc1C1(n2ccnc2)c2ccccc2C(=O)c2ccccc21 [drawing 35]	–	–	–	–	–	–	–	–	–	–	+
c1ccc(C2(n3ccnc3)c3ccccc3Oc3ccccc32)cc1 [reference compound]	–	> 100 µg/mL	–	100 µg/mL (≈ 308 µM)	–	–	–	> 100 µg/mL	–	20 µg/mL (≈ 61.7 µM)	–
c1ccc(C2(n3ccnc3)c3ccccc3Sc3ccccc32)cc1 [reference compound]	–	> 100 µg/mL	–	> 100 µg/mL	–	–	–	> 100 µg/mL	–	40 µg/mL (≈ 117 µM)	–
CSc1ccc(C2(n3ccnc3)c3ccccc3-c3ccccc32)cc1 [reference compound]	–	< 4 µg/mL	–	> 100 µg/mL	–	–	–	20 µg/mL (≈ 56.4 µM)	> 100 µg/mL	100 µg/mL (≈ 282 µM)	–
CSc1ccc(C2(n3ccnc3)c3ccccc3CCc3ccccc32)cc1 [reference compound]	–	10 µg/mL (≈ 26.1 µM)	–	> 100 µg/mL	–	–	–	40 µg/mL (≈ 105 µM)	> 100 µg/mL	–	–
